According to patent US6723747B2, “Substituted 6H-DiBenzo[c,h]chromenes as estrogenic agents” (Wyeth, priority 2001, dated 2004):

Columns and labels:
[1] = target: T1, human ERα (Homo sapiens, UniProt P03372); assay: Radioligand binding competition with [3H]-17β-estradiol, ERα; conditions: human ERα ligand binding domain, read-out: ER-α IC50
T1 construct: amino acids M250-V595 of human ERα; His (N); made in house; host or cells: E. coli BL21(DE3), clarified lysate
T1 sequence (P03372 250-595): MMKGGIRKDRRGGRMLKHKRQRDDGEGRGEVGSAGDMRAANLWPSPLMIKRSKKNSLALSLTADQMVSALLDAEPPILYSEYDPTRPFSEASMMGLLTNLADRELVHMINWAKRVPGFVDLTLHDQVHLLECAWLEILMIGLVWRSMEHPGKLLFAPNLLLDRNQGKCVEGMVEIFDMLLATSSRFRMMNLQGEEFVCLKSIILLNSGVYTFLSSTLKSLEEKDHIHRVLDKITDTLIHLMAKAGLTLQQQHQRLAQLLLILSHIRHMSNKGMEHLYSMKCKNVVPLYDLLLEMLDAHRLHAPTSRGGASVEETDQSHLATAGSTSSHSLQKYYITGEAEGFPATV

[2] = test system: HLA-B27 rats; assay: HLA rat test procedure for inflammatory bowel disease; assay type: in vivo; conditions: for stool character, group's average score: 10 mg/kg oral daily, 3=diarrhea, 2=soft, 1=normal stool
Experimental: Representative compounds of the invention were evaluated in the HLA rat standard pharmacological test procedure which emulates inflammatory bowel disease in humans. The following briefly describes the procedure used and results obtained. Male HLA-B27 rats were obtained from Taconic and provided unrestricted access to food (PMI Lab diet 5001) and water. Rats were dosed once daily (orally) with either vehicle (2% tween-80/0.5% methylcellulose) or Example 1d (10 mg/kg) for 26 days. Stool quality was observed daily and graded according to the following scale: Diarrhea=3; soft stool=2; normal stool=1. […] At the end of the study, serum was collected and stored at −70° C. A section of colon was prepared for histological analysis and an additional segment was analyzed for myeloperoxidase activity.
Histological analysis. Colonic tissue was immersed in 10% neutral buffered formalin. Each specimen of colon was separated into four samples for evaluation. The formalin-fixed tissues were processed in a Tissue Tek vacuum infiltration processor (Miles, Inc; West Haven, Conn.) for paraffin embedding. The samples were sectioned at 5 μm and then stained with hematoxylin and eosin (H&E) for blinded histologic evaluations using a scale modified after Boughton-Smith. After the scores were completed the samples were unblinded, and data were tabulated and analyzed by ANOVA linear modeling with multiple mean comparisons. Sections of colonic tissue were evaluated for several disease indicators and given relative scores.

[3] = test system: Lewis rats; assay: Lewis rat adjuvant-induced arthritis, inhibition test procedure; assay type: in vivo; conditions: 10 mg/kg sc daily from Day 1
[4] = test system: casein kinase II mRNA; assay: Mammary end bud test procedure (rat mammotrophic assay); assay type: in vivo; conditions: 20 mg/kg sc + progesterone 30 mg/kg; ovariectomized rats; vehicle 1.61 ± 0.36
Experimental: Estrogens are required for full ductal elongation and branching of the mammary ducts, and the subsequent development of lobulo-alveolar end buds under the influence of progesterone. In this test procedure, the mammotrophic activity of selected compounds of the invention was evaluated according to the following standard pharmacological test procedure. Twenty-eight day old Sprague-Dawley rats (Taconic Farms, Germantown, N.Y.) were ovariectomized and rested for nine days. […] For the final three days, rats were also dosed subcutaneously with progesterone (30 mg/kg). On the seventh day, rats were euthanised and a mammary fat pad excised. This fat pad was analyzed for casein kinase II mRNA as a marker of end bud proliferation. Casein kinase II mRNA was anlayzed by real-time RT-PCR. Briefly, RNA was isolated following Trizol (GibcoBRL, Grand Island, N.Y.) according to the manufacture's directions, Samples were treated with DNAse I using DNA-free kit (Ambion), and casein kinase II mRNA levels were measured by real-time RT-PCR using the Taqman Gold procedure (PE Applied Biosystems). […] Casein kinase II mRNA levels were normalized to 18s ribosomal RNA contained within each sample reaction using primers and probe supplied by PE Applied Biosystems. The following results were obtained for an example of the invention (Table (4)).

[5] = test system: 129 SvE mice; assay: Mouse uterotrophic test procedure (Procedure 2); assay type: in vivo; conditions: 50 mg/kg subcutaneously, 4 days, immature mice; first experiment, vehicle 9.5 ± 0.3
Experimental: Procedure 2: Sexually immature (18 days of age) 129 SvE mice were obtained from Taconic and provided unrestricted access to a casein-based diet (Purina Mills 5K96C) and water. On day 22, 23, 24 and 25 the mice were dosed subcutaneously with compound or vehicle (corn oil). There were six mice/group and they were euthanized approximately 6 hours after the last injection by CO2 asphyxiation and pneumothorax. Uteri were removed and weighed after trimming associated fat and expressing any internal fluid. The following results (Table (2)) were obtained for representative compounds from the invention.

With `N#Cc1cc2c(c3ccc(O)cc13)OCc1cc(O)ccc1-2` [Example 1d, 2,8-Dihydroxy-6H-dibenzo[c,h]chromene-12-carbonitrile] the IC50 [1] was 107 nM, the stool quality ([2]; 10 mg/kg orally once daily for 26 days) was “stool quality improved” and the “stool character, group's average score” value ([2]; day 1, vehicle 1) was 1. For the same molecule, the “stool character, group's average score” value ([2]; day 2, vehicle 1) was 1, the “stool character, group's average score” value ([2]; day 3, vehicle 1) was 1 and the “stool character, group's average score” value ([2]; day 4, vehicle 1.25) was 1. The “stool character, group's average score” value ([2]; day 5, vehicle 2.5) was 1.5, the “stool character, group's average score” value ([2]; day 6, vehicle 2.75) was 1.25 and the “stool character, group's average score” value ([2]; day 7, vehicle 2.75) was 1.25. For the same molecule, the “stool character, group's average score” value ([2]; day 8, vehicle 2.75) was 1, the “stool character, group's average score” value ([2]; day 9, vehicle 3) was 1.25 and the “stool character, group's average score” value ([2]; day 10, vehicle 3) was 1. The “stool character, group's average score” value ([2]; day 11, vehicle 2.75) was 1.25, the “stool character, group's average score” value ([2]; day 12, vehicle 2.75) was 1.25 and the “stool character, group's average score” value ([2]; day 13, vehicle 2.75) was 1.25. The “stool character, group's average score” value ([2]; day 14, vehicle 2.75) was 1.25, the “stool character, group's average score” value ([2]; day 15, vehicle 2.75) was 1 and the “stool character, group's average score” value ([2]; day 16, vehicle 3) was 1. For the same molecule, the “stool character, group's average score” value ([2]; day 17, vehicle 2.75) was 1, the “stool character, group's average score” value ([2]; day 18, vehicle 2.75) was 1 and the “stool character, group's average score” value ([2]; day 19, vehicle 2.75) was 1. The “stool character, group's average score” value ([2]; day 22, vehicle 3) was 1, the “stool character, group's average score” value ([2]; day 23, vehicle 3) was 1 and the “stool character, group's average score” value ([2]; day 24, vehicle 3) was 1. The “stool character, group's average score” value ([2]; day 25, vehicle 3) was 1, the “stool character, group's average score” value ([2]; day 26, vehicle 3) was 1 and the “measurements of tissue injury in colon” value ([2]; histological analysis, 10 mg/kg orally) was “effective in reducing several measurements of tissue injury”. For the same molecule, the “Fibrosis (0-2), colon histological score, mean ± SD” value ([2]; treated orally for 4 weeks, 10 mg/kg, vehicle 1.06 ± 0.32) was 0.13 ± 0.14, the “Ulceration (0-2), colon histological score, mean ± SD” value ([2]; treated orally for 4 weeks, 10 mg/kg, vehicle 1.44 ± 0.66) was 0.19 ± 0.13 and the “Lesion depth (0-2), colon histological score, mean ± SD” value ([2]; treated orally for 4 weeks, 10 mg/kg, vehicle 1.56 ± 0.63) was 0.19 ± 0.13. For the same molecule, the “Inflammation (0-3), colon histological score, mean ± SD” value ([2]; treated orally for 4 weeks, 10 mg/kg, vehicle 2.88 ± 0.14) was 1.38 ± 0.43, the “Total score, colon histological score, mean ± SD” value ([2]; treated orally for 4 weeks, 10 mg/kg, vehicle 6.94 ± 1.51) was 1.88 ± 0.14 and the “joint inflammation score (maximal score per day 12)” value ([3]; day 1, vehicle 0.00) was 0.00. The “joint inflammation score (maximal score per day 12)” value ([3]; day 2, vehicle 0.00) was 0.00, the “joint inflammation score (maximal score per day 12)” value ([3]; day 3, vehicle 4.50) was 2.66 and the “joint inflammation score (maximal score per day 12)” value ([3]; day 4, vehicle 5.50) was 1.83. The “joint inflammation score (maximal score per day 12)” value ([3]; day 5, vehicle 9.33) was 2.66, the “joint inflammation score (maximal score per day 12)” value ([3]; day 6, vehicle 10.50) was 2.16 and the “joint inflammation score (maximal score per day 12)” value ([3]; day 7, vehicle 10.60) was 2.00. The “joint inflammation score (maximal score per day 12)” value ([3]; day 8, vehicle 11.00) was 1.66, the “joint inflammation score (maximal score per day 12)” value ([3]; day 9, vehicle 11.50) was 2.00 and the “joint inflammation score (maximal score per day 12)” value ([3]; day 10, vehicle 11.33) was 2.00. For the same molecule, the “joint inflammation score (maximal score per day 12)” value ([3]; day 11, vehicle 10.83) was 1.66, the “joint inflammation score (maximal score per day 12)” value ([3]; day 12, vehicle 10.83) was 1.66 and the “joint inflammation score (maximal score per day 12)” value ([3]; day 13, vehicle 11.00) was 2.16. The “joint inflammation score (maximal score per day 12)” value ([3]; day 14, vehicle 11.00) was 2.00, the “joint inflammation score (maximal score per day 12)” value ([3]; day 15, vehicle 11.00) was 2.00 and the “joint inflammation score (maximal score per day 12)” value ([3]; day 16, vehicle 11.00) was 1.00. The “joint inflammation score (maximal score per day 12)” value ([3]; day 17, vehicle 10.50) was 1.33, the “Casein kinase II mRNA/18S rRNA (mean ± SEM)” value [4] was 1.4 ± 0.7 and the “mean uterine weight ± SEM” value [5] was 9.8 ± 0.5 mg. It also gave a melting point of over 250 °C.
